Several values for one entry are separate records, joined by “and”; a condition that tells them apart may be missing. Identical values can stand only once.
Key:
human 5-HT3A receptors = target: T1, human 5-HT3A receptors (Homo sapiens, UniProt P46098); test: Two-electrode voltage clamp of 5-HT-induced currents in Xenopus oocytes, incl. co-application; assay type: cell-based; conditions: for use-dependence of inhibition: 3 μM 5-HT applied at 1 min intervals in continued presence of antagonist; for ratio of current amplitudes at +40 mV relative to −40 mV (voltage-dependence): compared with absence of antagonist, Fig. 2E; for Hill slope: concentration-inhibition curve, 1.7 μM 5-HT; for potency at 5-HT3A relative to GABA and glycine receptors: less potent than at GABA and glycine receptors, ref Huang et al., 2004, Hawthorne et al., 2006
T1 construct: expressed in transfected cells; host or cells: Xenopus laevis oocytes (cRNA from pGEMHE)
T1 sequence (P46098 24-478): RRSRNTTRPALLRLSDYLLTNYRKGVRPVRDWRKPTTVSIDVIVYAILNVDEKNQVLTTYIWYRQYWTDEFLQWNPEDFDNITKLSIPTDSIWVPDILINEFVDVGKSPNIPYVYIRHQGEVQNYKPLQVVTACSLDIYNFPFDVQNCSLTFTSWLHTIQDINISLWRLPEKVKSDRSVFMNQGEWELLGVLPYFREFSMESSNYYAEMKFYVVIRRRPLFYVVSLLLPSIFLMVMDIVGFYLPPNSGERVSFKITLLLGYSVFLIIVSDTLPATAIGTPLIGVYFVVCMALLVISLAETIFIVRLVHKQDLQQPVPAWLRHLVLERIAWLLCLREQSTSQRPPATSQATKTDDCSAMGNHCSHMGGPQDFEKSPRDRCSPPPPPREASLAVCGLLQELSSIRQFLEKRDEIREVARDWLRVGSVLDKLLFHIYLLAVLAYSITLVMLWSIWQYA
Description: (§1) Stage V and VI oocytes were injected with 50 nl of ∼300 ng μl^−1 cRNA, and currents were recorded 1–4 days post-injection. A ratio of 1:3 (A:B) was used for the expression of heteromeric 5-HT3 receptors.
(§2) Xenopus laevis oocyte positive females were purchased from NASCO (Fort Atkinson, Wisconsin, USA) and maintained according to standard methods.
(§3) Currents were filtered at a frequency of 1 kHz. Micro-electrodes were fabricated from borosilicate glass (GC120TF-10, Harvard Apparatus, Edenbridge, Kent, UK) using a two stage horizontal pull (P-87, Sutter Instrument Company, California, USA) and filled with 3 M KCl. […] Oocytes were perfused with saline at a rate of 15 ml min^−1. Drug application was via a simple gravity fed system calibrated to run at the same rate. Extracellular saline contained (mM), 96 NaCl, 2 KCl, 1 MgCl2 and 5 mM HEPES; adjusted to pH 7.4 with NaOH.
(§4) Analysis and curve fitting was performed using Prism V3.02 (GraphPad Software, San Diego, California, USA, www.graphpad.com). Concentration-response data for each oocyte was normalised to the maximum current for that oocyte. For inhibition curves, antagonists were routinely co-applied in the presence of agonist. For PXN, oocytes were also pre-treated with the compound for 20 s. A 2 min wash was used between drug applications. The mean and S.E.M. for a series of oocytes was plotted against agonist or antagonist concentration and iteratively fitted (GraphPad Prism v3.02) to the following Hill equation:(1) IA=Imin+Imax−Imin/1+10^nH(logA50−logA) where A is the concentration of ligand present; IA is the current in the presence of ligand concentration A; Imin is the current when A = 0; Imax is the current when A = ∞ , A50 is the concentration of A which evokes a current equal to (Imax + Imin)/2; and nH is the Hill coefficient. Results are presented as mean ± S.E.M.. Statistical analysis was performed using ANOVA in conjunction with a Dunnett’s post-hoc test.
97) • Scenario 1: Where compounds share a binding site it was assumed that the extent of binding would be determined by a competitive interaction between the compounds such that the proportion of binding sites occupied (Pocc) in the presence of two competing compounds is given by the following expression: (2) Pocc=AKA+BKB/1+AKA+BKB where A and B are the concentrations of two ligands and KA and KB are their affinity constants respectively.
In each individual experiment, for each combination of inhibitors, data values were obtained for IA, IB and IAB. From IA and IB predicted values of IAB1 and IAB2 were also derived. A two-way ANOVA was performed on values of IAB, IAB1 and IAB2 in which the distinction between IAB, IAB1 and IAB2 was treated as a fixed factor and the variation in levels of inhibition between experiments was treated as a random factor. Where the ANOVA indicated a significant difference (P < 0.05) between IAB, IAB1 and IAB2 a post-hoc analysis was carried out using the Waller–Duncan method to identify homogenous subsets with a significance level of 0.05 and a Type I /Type II error ratio if 100.
Our models were based on the following assumptions: 1. that the channel blocking compounds only effect the response that is seen when the channel is open. […] In the case of condition 5 it is possible that the binding of one compound may prevent access of another to its own site. However, in practice this will not influence the analysis since the functional consequence of the binding of both compounds compared to one will be the same, namely complete channel blockade.

human 5-HT3AB receptors = target: T2, human 5-HT3AB receptors (Homo sapiens, UniProt O95264+P46098); test: Two-electrode voltage clamp of 5-HT-induced currents in Xenopus oocytes; assay type: cell-based; conditions: for IC50 at heteromers (5-HT3AB) relative to 5-HT3A: 5-HT3AB versus 5-HT3A; for IC50: oocytes; for Hill slope: concentration-inhibition curve, 28 μM 5-HT
T2 construct: expressed in transfected cells; host or cells: Xenopus laevis oocytes (cRNA from pGEMHE)
T2 sequence (P46098 24-478): T1 sequence (P46098 24-478)
T2 sequence (O95264 22-441): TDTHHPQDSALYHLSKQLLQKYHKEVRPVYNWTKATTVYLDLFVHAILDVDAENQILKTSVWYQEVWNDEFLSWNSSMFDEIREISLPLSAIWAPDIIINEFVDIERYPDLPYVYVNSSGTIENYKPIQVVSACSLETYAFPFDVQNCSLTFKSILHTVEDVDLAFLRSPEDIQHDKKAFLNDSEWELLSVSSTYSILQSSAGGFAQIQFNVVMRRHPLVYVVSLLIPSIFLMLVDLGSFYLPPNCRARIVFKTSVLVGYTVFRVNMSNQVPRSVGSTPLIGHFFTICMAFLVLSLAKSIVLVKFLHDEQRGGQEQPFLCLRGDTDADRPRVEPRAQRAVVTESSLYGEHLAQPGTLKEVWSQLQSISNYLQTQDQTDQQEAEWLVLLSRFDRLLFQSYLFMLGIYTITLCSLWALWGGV
Description: as §1, §2, §3, §4

glycine α1 receptors = target: glycine α1 receptors; parameters: method as in Yang et al., 2007; conditions: ref Yang et al., 2007; cited from earlier work
glycine α1β receptors = target: glycine α1β receptors; parameters: method as in Yang et al., 2007; conditions: ref Yang et al., 2007; cited from earlier work
GABAA receptor = tested on: GABAA receptor; parameters: method as in earlier work; conditions: more potent than PTN; ref Chen et al., 2006; Curtis and Johnston, 1974; Yang et al., 2007; cited from earlier work
glycine α2 receptors = tested on: glycine α2 receptors; parameters: method as in earlier work; conditions: more potent than PTN; ref Chen et al., 2006; Curtis and Johnston, 1974; Yang et al., 2007; cited from earlier work
[1] = IC50, inhibition of 5-HT EC50 response (28 μM 5-HT)
[2] = pIC50, inhibition of 5-HT EC50 response (28 μM 5-HT)
[3] = GB 300 μM, use-dependency experiment, Fig. 3A

Row | Molecule | IC50 (human 5-HT3A receptors) [µM] | use-dependence of inhibition (human 5-HT3A receptors; GB 300 μM) | ratio of current amplitudes at +40 mV relative to −40 mV (voltage-dependence) (human 5-HT3A receptors) | Hill slope (human 5-HT3A receptors) | potency at 5-HT3A relative to GABA and glycine receptors (human 5-HT3A receptors) [fold] | IC50 at heteromers (5-HT3AB) relative to 5-HT3A (human 5-HT3AB receptors) [fold] | IC50 (human 5-HT3AB receptors; [1]) [µM] | Hill slope (human 5-HT3AB receptors) | IC50 (human 5-HT3AB receptors; [2]) [µM] | further results
1 | CC(C)(C)[C@]1(O)CC2OC(=O)CC23C(=O)OC2OC(=O)[C@H](O)C231 (some centres unmarked) [BB, bilobalide] | 470 | remained stable | unaltered | 1.48 ± 0.16 | ~100 | ~6 | 3200 | 0.75 ± 0.13 | 3160 | current on washout (human 5-HT3A receptors; 6 mM): transient rebound current was observed
2 | C=C(C)[C@@H]1[C@H]2OC(=O)[C@@H]1[C@]1(O)C[C@H]3O[C@]34C(=O)O[C@H]2[C@]14C [PXN, picrotoxinin] | 10.7 | remained stable | unaltered | 0.68 ± 0.12 | – | ~6 | 62 | 0.68 ± 0.10 | 63.1 | Level of inhibition (1 − (I/Imax)) PXN (human 5-HT3A receptors; PXN 5 μM applied alone): 0.35 ± 0.03; effect on 5-HT concentration-response curves (human 5-HT3A receptors; PXN between 1–50 × IC50): rightwards shifts and a reduction in the maximal current; inhibition at 5 µM (human 5-HT3A receptors; read-out: Level of inhibition (1 − (I/Imax)) PXN, PXN 5 μM applied alone): 48 ± 4%; IC50 (glycine α1 receptors): ~5 µM; IC50 (glycine α1β receptors): ~30 µM; potency relative to PTN (GABAA receptor): ~50 fold; potency relative to PTN (glycine α2 receptors): ~30 fold
3 | ginkgolide B [GB] | – | use-dependent | unaltered | 1.10 ± 0.13 | ~100 | ~6 | – | 0.52 ± 0.14 | – | Level of inhibition (1 − (I/Imax)) GB (human 5-HT3A receptors; GB 11 μM applied alone): 0.25 ± 0.01 and 0.26 ± 0.05; percentage inhibition measured at peak (human 5-HT3A receptors; [3]): 31 ± 3.1%; percentage inhibition measured during the first application (human 5-HT3A receptors; [3]): 38 ± 0.8%; first 5-HT response as % of the second 5-HT response (recovery) (human 5-HT3A receptors; after 0.3 mM GB): 91 ± 2%

— publication PMC3070799 (Neuropharmacology, 2011)
